± gives the expanded uncertainty stated by the source.
Assays:
[1] = Liquid; for speed of sound: Frequency=3 MHz, Pulse-echo method; for mass density: Vibrating tube method
[2] = xn = mol fraction of the nth substance listed; settings: Liquid, Vibrating tube method, x1 = 1

Row | Structure (SMILES) | mass density ([1]; 303.15 K, 10000 kPa) | mass density ([1]; 303.15 K, 20000 kPa) | mass density ([1]; 303.15 K, 30000 kPa) | mass density ([1]; 303.15 K, 40000 kPa) | mass density ([1]; 303.15 K, 50000 kPa) | mass density ([1]; 303.15 K, 60000 kPa) | mass density ([1]; 303.15 K, 70000 kPa) | mass density ([1]; 313.15 K, 10000 kPa) | mass density ([1]; 313.15 K, 20000 kPa) | mass density ([1]; 313.15 K, 30000 kPa) | mass density ([1]; 313.15 K, 40000 kPa) | mass density ([1]; 313.15 K, 50000 kPa) | mass density ([1]; 313.15 K, 60000 kPa) | mass density ([1]; 313.15 K, 70000 kPa) | further results
1 | CCCCCCCCCCCC [dodecane] | 748.5 ± 0.8 kg/m3 | 755.1 ± 0.9 kg/m3 | 761.3 ± 1 kg/m3 | 766.9 ± 1 kg/m3 | 772 ± 1 kg/m3 | 776.8 ± 1.1 kg/m3 | 781.4 ± 1.1 kg/m3 | 741.6 ± 0.8 kg/m3 | 748.5 ± 0.9 kg/m3 | 754.8 ± 0.9 kg/m3 | 760.8 ± 1 kg/m3 | 766.3 ± 1.1 kg/m3 | 771.5 ± 1.1 kg/m3 | 776.4 ± 1.1 kg/m3 | speed of sound ([1]; 303.15 K, 10000 kPa): 1318.5 ± 1.8 m/s; speed of sound ([1]; 303.15 K, 20000 kPa): 1372.4 ± 1.8 m/s; speed of sound ([1]; 303.15 K, 30000 kPa): 1421.4 ± 1.8 m/s; speed of sound ([1]; 303.15 K, 40000 kPa): 1468.5 ± 1.9 m/s; speed of sound ([1]; 303.15 K, 50000 kPa): 1512.3 ± 1.9 m/s; speed of sound ([1]; 303.15 K, 60000 kPa): 1553.7 ± 1.9 m/s; speed of sound ([1]; 303.15 K, 70000 kPa): 1593.3 ± 2 m/s; speed of sound ([1]; 313.15 K, 10000 kPa): 1281.7 ± 1.8 m/s; speed of sound ([1]; 313.15 K, 20000 kPa): 1337.9 ± 1.8 m/s; speed of sound ([1]; 313.15 K, 30000 kPa): 1389.6 ± 1.8 m/s; speed of sound ([1]; 313.15 K, 40000 kPa): 1436.8 ± 1.8 m/s; speed of sound ([1]; 313.15 K, 50000 kPa): 1481.5 ± 1.9 m/s; speed of sound ([1]; 313.15 K, 60000 kPa): 1524.2 ± 1.9 m/s; speed of sound ([1]; 313.15 K, 70000 kPa): 1564.6 ± 1.9 m/s
2 | O=C=O [carbon dioxide] + CCCCCCCCCCCC |  |  |  |  |  |  |  |  |  |  |  |  |  |  | mass density ([2]; 303.15 K, 10000 kPa): 770.5 ± 1.8 kg/m3; mass density ([2]; 303.15 K, 20000 kPa): 890.1 ± 0.5 kg/m3; mass density ([2]; 303.15 K, 30000 kPa): 949.2 ± 0.5 kg/m3; mass density ([2]; 303.15 K, 40000 kPa): 989.1 ± 0.5 kg/m3; mass density ([2]; 303.15 K, 50000 kPa): 1020 ± 0.5 kg/m3; mass density ([2]; 303.15 K, 60000 kPa): 1045.8 ± 0.5 kg/m3; mass density ([2]; 303.15 K, 70000 kPa): 1068 ± 0.5 kg/m3; mass density ([2]; 313.15 K, 10000 kPa): 628.9 ± 1.9 kg/m3; mass density ([2]; 313.15 K, 20000 kPa): 839.3 ± 1.1 kg/m3; mass density ([2]; 313.15 K, 30000 kPa): 909.2 ± 0.6 kg/m3; mass density ([2]; 313.15 K, 40000 kPa): 955.5 ± 0.6 kg/m3; mass density ([2]; 313.15 K, 50000 kPa): 990.5 ± 0.5 kg/m3; mass density ([2]; 313.15 K, 60000 kPa): 1019 ± 0.5 kg/m3; mass density ([2]; 313.15 K, 70000 kPa): 1043.5 ± 0.5 kg/m3
3 | O=C=O [carbon dioxide] | 770.5 ± 1.8 kg/m3 | 890.1 ± 0.5 kg/m3 | 949.2 ± 0.5 kg/m3 | 989.1 ± 0.5 kg/m3 | 1020 ± 0.5 kg/m3 | 1045.8 ± 0.5 kg/m3 | 1068 ± 0.5 kg/m3 | 628.9 ± 1.9 kg/m3 | 839.3 ± 1.1 kg/m3 | 909.2 ± 0.6 kg/m3 | 955.5 ± 0.6 kg/m3 | 990.5 ± 0.5 kg/m3 | 1019 ± 0.5 kg/m3 | 1043.5 ± 0.5 kg/m3 | 

Reference: the NIST ThermoML archive (doi:10.1021/acs.jced.9b00311)
